Consider five compounds from patent publication US8329230B2, “Natural hair care composition, methods for obtaining the same and use thereof” (priority 2004, dated 2012).

Data set [1] deals with heart rate. To be noted: oral; cited from earlier work.
Data set [2] relates to chemotherapy induced alopecia. The data set can be described thus: Chemotherapeutic agent (cyclophosphamide) induced alopecia model, topical extracts. The class given is in vivo, rat pups of Sprague-Dawley strain. As for the experimental part: Eight-day old rat pups of Sprague-Dawley strain of either sex, bred in Experimental Animal Facility of R&D Center, The Himalaya Drug Company, were used for the experiment. The animals were maintained at 22±3° C., 50-60% of humidity, 12 hours light and dark cycle.
Screening of Extracts in Chemotherapeutic Agent Induced Alopecia Model:
Three Groups of 8 rat pups are used. Group I served normal control and received saline at a dose of 10 ml/kg i.p. Group II & Group III animals received Cyclophosphamide (CP) at a dose of 50 mg/kg i.p. as a single dose. Test extracts PCPB-1 to PCPB-10, PCPB-1P to PCPB-10P and PCPB-1S to PCPB-10S were applied topically to Group III animals everyday from day one after Cyclophosphamide administration till the end of the study. On the 12th day of post Cyclophosphamide injection, the animals were graded for alopecia as given below.
2+—Moderately severe alopecia with more than 50% hair loss
3+—Severe and total alopecia.

Data set [3] relates to Cladosporium cladosporioides (Fres.) de Vries. As to conditions: cited from earlier work.
Data set [4] relates to murine hair epithelial cells. To be noted: Phytother. Res. 15, 331-36, 2001; cited from earlier work.
Data set [5] concerns male pattern baldness. To be noted: Phytother. Res. 15, 331-36, 2001; cited from earlier work.

“Also recorded” adds a separate entry of the source.

Regarding `Nc1cc(N2CCCCC2)nc(N)[n+]1[O-]` [Minoxidil], in data set [1], the “effect on heart rate” value is reported as “reported to affect heart rate in some patients”.

For the compound `O=P1(N(CCCl)CCCl)NCCCO1` (stereo not drawn) [CP, Cyclophosphamide], the “hair growth, stereosome photograph” value in data set [2] (figure legends FIGS. 2, 3) is recorded as “scanty hairs”. For the same compound, the “alopecia, appearance of rat pups” value in data set [2] (figure legends FIGS. 5, 6) is given as “high degree of alopecia”. Moreover, the “hair follicles, photomicrograph of skin section” value in data set [2] (figure legends FIGS. 8-10) is on record as “degenerating hair follicles with decrease in their numbers; also recorded: degenerating hair follicles with epidermal down growth”. In addition, in data set [2] (mean ± SEM of 8 rat pups, graded 0 to 3+ on 12th day post CP), the “alopecia grade, Mean SEM” value came to 2.88 ± 0.13.

Take `COc1ccc2c(c1)OC1c3ccc(OC(C)=O)cc3OCC21` (single isomer, unassigned; (-)) [(−)-medicarpin acetate]: in data set [3], the anti-fungal activity result is given as “active”.

Regarding `COc1ccc2c(c1)O[C@H]1c3ccc(O)cc3OC[C@@H]21` [(−)-medicarpin, (−)-3-hydroxy-9-methoxy ptero carpan], in data set [3], the anti-fungal activity entry is given as “active”.

As to `Oc1cc(O)c2c(c1)O[C@H](c1ccc(O)c(O)c1)[C@H](O)[C@H]2c1c(O)cc(O)c2c1O[C@H](c1ccc(O)c(O)c1)[C@H](O)C2` [Procyanidin B-2], the “growth promoting effect on hair epithelial cells” value in data set [4] was “acts as growth promoting factor”. The “potential as cure for male pattern baldness” value in data set [5] is recorded as “showed potential as promising cure”.
